Data: US20130190289A1, “COMPOUNDS AND METHODS FOR THE TREATMENT OR PREVENTION OF FLAVIVIRUS INFECTIONS” (priority 2010, published 2013)
pIC50: −log10 of the molar value. Like-named read-outs stand apart in the source and are kept apart here.

Columns and labels:
[1] = tested on: HCV replicon (genotype 1b) in Huh7 cell line ET; experiment: microbe, parasite or virus in culture; assay type: cell-based, HCV genotype 1b; conditions: Hepatitis C virus
[2] = [3H]Thymidine incorporation assay (cell toxicity); conditions: human
[3] = Huh-7, read-out: HCV-Replicon-(Luci-ET) 1b_IC50
[4] = Huh-7, 96 h, read-out: HCV-Replicon (Luci-ET)-1b_IC50

## CC[C@@H](C(=O)N(C)C1CCOCC1)N(c1cc(C#CC(C)(C)C)sc1C(=O)O)C(=O)[C@H]1CC[C@H](C)CC1 [Compound 81, 5-(3,3-Dimethylbut-1-ynyl)-3-[(trans-4-methylcyclohexanecarbonyl)-[(1S)-1-[methyl(tetrahydropyran-4-yl)carbamoyl]propyl]amino]thiophene-2-carboxylic acid]
[1]; [3]
  pIC50: > 7.00
[2]
  CC50 at 72 h: 10 to 100 µM

## CC(C)[C@@H](C(=O)N1CCOCC1)N(c1cc(C#CC(C)(C)C)sc1C(=O)O)C(=O)[C@H]1CC[C@H](C)CC1 [Compound 85, 5-(3,3-Dimethylbut-1-ynyl)-3-[(trans-4-methylcyclohexanecarbonyl)-[(1S)-2-methyl-1-(morpholine-4-carbonyl)propyl]amino]thiophene-2-carboxylic acid]
[1]; [3]
  pIC50: > 7.00
[2]
  CC50 at 72 h: 10 to 100 µM

## O=C(O)c1sc(-c2ccc(Oc3ccccc3)cc2)cc1N(CC(=O)N1CCOCC1)C(=O)c1ccc(Cl)cc1Cl [Compound 152, 3-[(2,4-dichlorobenzoyl)-(2-morpholino-2-oxo-ethyl)amino]-5-(4-phenoxyphenyl)thiophene-2-carboxylic acid]
[1]; [4]
  pIC50: 5.00 to 6.00
[2]
  CC50 at 72 h: 10 to 100 µM

## CC[C@@H](C(=O)N(C)CCO)N(c1cc(C#CC(C)(C)C)sc1C(=O)O)C(=O)[C@H]1CC[C@H](C)CC1 [Compound 77, 5-(3,3-Dimethylbut-1-ynyl)-3-[[(1S)-1-[2-hydroxyethyl(methyl)carbamoyl]propyl]-(trans-4-methylcyclohexanecarbonyl)amino]thiophene-2-carboxylic acid]
[1]; [3]
  pIC50: > 7.00
[2]
  CC50 at 72 h: > 100 µM

## COCCN(C)C(=O)C[C@H](C)N(c1cc(C#CC(C)(C)C)sc1C(=O)O)C(=O)[C@H]1CC[C@H](C)CC1 [Compound 114, 5-(3,3-Dimethylbut-1-ynyl)-3-[[(1S)-3-[2-methoxyethyl(methyl)amino]-1-methyl-3-oxo-propyl]-(trans-4-methylcyclohexanecarbonyl)amino]thiophene-2-carboxylic acid]
[1]; [3]
  pIC50: > 7.00
[2]
  CC50 at 72 h: > 100 µM

## CCOC[C@@H](C(=O)N1CCOCC1)N(c1cc(C#CC(C)(C)C)sc1C(=O)O)C(=O)[C@H]1CC[C@H](C)CC1 [Compound 87, 5-(3,3-Dimethylbut-1-ynyl)-3-[[(1S)-1-(ethoxymethyl)-2-morpholino-2-oxo-ethyl]-(trans-4-methylcyclohexanecarbonyl)amino]thiophene-2-carboxylic acid]
[1]; [3]
  pIC50: > 7.00
[2]
  CC50 at 72 h: > 100 µM

## C[C@@H](C(=O)N1CC[C@H](CO)C1)N(c1cc(C#CC(C)(C)C)sc1C(=O)O)C(=O)[C@H]1CC[C@H](C)CC1 [Compound 39, 5-(3,3-Dimethylbut-1-ynyl)-3-[[(1S)-2-[(3S)-3-(hydroxymethyl)pyrrolidin-1-yl]-1-methyl-2-oxo-ethyl]-(trans-4-methylcyclohexanecarbonyl)amino]thiophene-2-carboxylic acid]
[1]; [3]
  pIC50: > 7.00
[2]
  CC50 at 72 h: > 100 µM

## CC1(C#Cc2cc(N(CC(=O)N3CCOCC3)C(=O)[C@H]3CC[C@H](C)CC3)c(C(=O)O)s2)CC1 [Compound 144, 3-[(trans-4-methylcyclohexanecarbonyl)-(2-morpholino-2-oxo-ethyl)amino]-5-[2-(1-methylcyclopropyl)ethynyl]thiophene-2-carboxylic acid]
[1]; [4]
  pIC50: > 7.00
[2]
  CC50 at 72 h: > 100 µM

## C[C@@H](CC(=O)N1CCN(C)CC1)N(c1cc(C#CC(C)(C)C)sc1C(=O)O)C(=O)[C@H]1CC[C@H](C)CC1 [Compound 110, 5-(3,3-Dimethylbut-1-ynyl)-3-[(trans-4-methylcyclohexanecarbonyl)-[(1S)-1-methyl-3-(4-methylpiperazin-1-yl)-3-oxo-propyl]amino]thiophene-2-carboxylic acid]
[1]; [3]
  pIC50: > 7.00
[2]
  CC50 at 72 h: > 100 µM

## C[C@H](C(=O)N(C)C)N(c1cc(C#CC(C)(C)C)sc1C(=O)O)C(=O)[C@H]1CC[C@H](C)CC1 [Compound 2, 5-(3,3-Dimethyl-but-1-ynyl)-3-[((R)-1-dimethylcarbamoyl-ethyl)-(trans-4-methyl-cyclohexanecarbonyl)-amino]-thiophene-2-carboxylic acid]
[1]; [3]
  pIC50: > 7.00
[2]
  CC50 at 72 h: 10 to 100 µM

## C[C@@H](C(=O)NC1CCC(O)CC1)N(c1cc(C#CC(C)(C)C)sc1C(=O)O)C(=O)[C@H]1CC[C@H](C)CC1 (stereo partly drawn) [Compound 31, 5-(3,3-Dimethylbut-1-ynyl)-3-[[(1S)-2-[(4-hydroxycyclohexyl)amino]-1-methyl-2-oxo-ethyl]-(trans-4-methylcyclohexanecarbonyl)amino]thiophene-2-carboxylic acid]
[1]; [3]
  pIC50: > 7.00
[2]
  CC50 at 72 h: > 100 µM

## CC1CCC(C(=O)N(CCC(=O)N2CCOCC2)c2cc(C#CC(C)(C)C)sc2C(=O)O)CC1 (stereo not shown) [Compound 97]
[1]; [3]
  pIC50: > 7.00
[2]
  CC50 at 72 h: > 100 µM

## CC(C)C#Cc1cc(N(CC(=O)N2CCNCC2)C(=O)C2CCC(C)CC2)c(C(=O)O)s1 (stereo not shown) [Compound 69]
[1]; [3]
  pIC50: > 7.00
[2]
  CC50 at 72 h: > 100 µM

## CC[C@@H](C(=O)N1CCOCC1)N(c1cc(C#CC(C)C)sc1C(=O)O)C(=O)[C@H]1CC[C@H](C)CC1 [Compound 90, 5-(3-Methylbut-1-ynyl)-3-[(trans-4-methylcyclohexanecarbonyl)-[(1S)-1-(morpholine-4-carbonyl)propyl]amino]thiophene-2-carboxylic acid]
[1]; [3]
  pIC50: > 7.00
[2]
  CC50 at 72 h: > 100 µM

## COC1CN(C(=O)[C@H](C)N(c2cc(C#CC(C)(C)C)sc2C(=O)O)C(=O)[C@H]2CC[C@H](C)CC2)C1 [Compound 52, 5-(3,3-Dimethylbut-1-ynyl)-3-[[(1S)-2-(3-methoxyazetidin-1-yl)-1-methyl-2-oxo-ethyl]-(trans-4-methylcyclohexanecarbonyl)amino]thiophene-2-carboxylic acid]
[1]; [3]
  pIC50: > 7.00
[2]
  CC50 at 72 h: > 100 µM

## CC1CN(C(=O)CN(c2cc(C#CC(C)(C)C)sc2C(=O)O)C(=O)[C@H]2CC[C@H](C)CC2)CCO1 (stereo partly shown) [Compound 26]
[1]; [3]
  pIC50: > 7.00
[2]
  CC50 at 72 h: 10 to 100 µM

## CCC1CCC(C(=O)N(c2cc(C#CC(C)(C)C)sc2C(=O)O)[C@@H](COC)C(=O)N2CCCC2)CC1 (stereo partly drawn) [Compound 63, 5-(3,3-Dimethylbut-1-ynyl)-3-[(4-ethylcyclohexanecarbonyl)-[(1S)-1-(methoxymethyl)-2-oxo-2-pyrrolidin-1-yl-ethyl]amino]thiophene-2-carb oxylic acid]
[1]; [3]
  pIC50: 6.00 to 7.00
[2]
  CC50 at 72 h: 10 to 100 µM

## C[C@@H](CC(=O)N(C)C1CCN(C)CC1)N(c1cc(C#CC(C)(C)C)sc1C(=O)O)C(=O)[C@H]1CC[C@H](C)CC1 [Compound 113, 5-(3,3-Dimethylbut-1-ynyl)-3-[(trans-4-methylcyclohexanecarbonyl)-[(1S)-1-methyl-3-[methyl-(1-methyl-4-piperidyl)amino]-3-oxo-propyl]amino]thiophene-2-carboxylic acid]
[1]; [3]
  pIC50: > 7.00
[2]
  CC50 at 72 h: > 100 µM

## CN(C(=O)CN(c1cc(C#CC(C)(C)C)sc1C(=O)O)C(=O)[C@H]1CC[C@H](C)CC1)C1CCOCC1 [Compound 43]
[1]; [3]
  pIC50: > 7.00
[2]
  CC50 at 72 h: > 100 µM

## C[C@@H](C(=O)N1CCOC(C)(C)C1)N(c1cc(C#CC(C)(C)C)sc1C(=O)O)C(=O)[C@H]1CC[C@H](C)CC1 [Compound 50, 5-(3,3-Dimethylbut-1-ynyl)-3-[[(1S)-2-(2,2-dimethylmorpholin-4-yl)-1-methyl-2-oxo-ethyl]-(trans-4-methylcyclohexanecarbonyl)amino]thiophene-2-carboxylic acid]
[1]; [3]
  pIC50: > 7.00
[2]
  CC50 at 72 h: > 100 µM
